Test systems include MDA-MB-231 breast; HCC-2998 colon; OVCAR-5 ovarian; SF-268 CNS; COLO 205 colon; HL-60(TB) leukemia; M14 melanoma; NCI-H23 lung; SW-620 colon; HCT-116 colon.
What all share (assay): NCI anticancer screen, dose series, 48 h

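Protocol summary: plate cells (96-well), add compound at 5 concentrations, incubate 48 h, interpolate endpoints linearly. Abbreviation: GI50, concentration required for 50% inhibition of growth. At the TGI there is no net growth.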

In the case of `O=[N+]([O-])c1ccc(Oc2nc(Nc3ccc(O[C@H]4CO[C@H]5[C@@H]4OC[C@@H]5O)c(Cl)c3)ncc2F)c(Cl)c1`, the GI50 with MDA-MB-231 breast is 1.6 µM; with HCC-2998 colon it was 2.12 µM; in the assay on OVCAR-5 ovarian it was 2.33 µM; in the assay with SF-268 CNS, 1.56 µM; in the assay on COLO 205 colon, 1.42 µM; in the assay on HL-60(TB) leukemia, 1.53 µM. Besides, the GI50 with M14 melanoma was 0.565 µM; in the assay with NCI-H23 lung, 1.3 µM; in the assay on SW-620 colon, 1.38 µM. For the same molecule, the TGI was determined as 7.39 µM in the assay on MDA-MB-231 breast; 7.07 µM with HCC-2998 colon; 16.8 µM with OVCAR-5 ovarian; 6.92 µM in the assay with SF-268 CNS; 3.78 µM in the assay on COLO 205 colon; 4.11 µM in the assay on HL-60(TB) leukemia. Besides, the figures for the TGI with M14 melanoma, in the assay with NCI-H23 lung and in the assay on SW-620 colon were 1.93 µM, 3.22 µM and 12.6 µM, respectively.

In the case of `Cc1ccc(-c2c3c(nn2-c2ccc(S(N)(=O)=O)cc2)-c2ccccc2C3)cc1`, the GI50 with MDA-MB-231 breast is 14.5 µM; in the assay on HCC-2998 colon, 8.54 µM; in the assay on OVCAR-5 ovarian, 26.1 µM; in the assay with SF-268 CNS it was 20.3 µM; in the assay with COLO 205 colon, 23 µM; in the assay with M14 melanoma, 19.2 µM. Besides, the GI50 in the assay with NCI-H23 lung is 22.3 µM; in the assay on HCT-116 colon it was 11 µM; in the assay on SW-620 colon, 4.4 µM. In addition, the TGI was determined as 37.4 µM in the assay with MDA-MB-231 breast; 25.8 µM with HCC-2998 colon; 63.7 µM in the assay on OVCAR-5 ovarian; 44.7 µM with SF-268 CNS; 94.9 µM in the assay with COLO 205 colon; 37.6 µM in the assay on M14 melanoma. For the same molecule, the figures for the TGI in the assay on NCI-H23 lung, with HCT-116 colon and with SW-620 colon were 45.2 µM, 24.2 µM and 17 µM, respectively.

As to `CC(=O)c1c(CN(C)c2ccccc2)n([O-])c2ccccc2[n+]1=O`, the GI50 with MDA-MB-231 breast is 27.1 µM; with HCC-2998 colon it was 30.9 µM; in the assay on OVCAR-5 ovarian it was 31.9 µM; with SF-268 CNS, 24.1 µM; with COLO 205 colon it was 16.2 µM; in the assay with M14 melanoma, 31.4 µM. Further, the GI50 with NCI-H23 lung was 16.4 µM; with HCT-116 colon it was 27.9 µM; in the assay with SW-620 colon, 21 µM. Besides, the TGI in the assay with MDA-MB-231 breast is more than 100 µM; in the assay with HCC-2998 colon, more than 100 µM; in the assay with OVCAR-5 ovarian, more than 100 µM; in the assay on SF-268 CNS, 79.9 µM; with COLO 205 colon it was 32.9 µM; in the assay with M14 melanoma, 80.4 µM. In addition, the TGI in the assay on NCI-H23 lung was 35.3 µM; in the assay with HCT-116 colon it was more than 100 µM; in the assay on SW-620 colon it was more than 100 µM.

Turning to `Nc1cc(O)ccc1N=Nc1ccc(-c2nc3ccccc3[nH]2)cc1`, the GI50 in the assay on MDA-MB-231 breast is 68.7 µM; in the assay on OVCAR-5 ovarian, more than 100 µM; in the assay with SF-268 CNS, 3.07 µM; in the assay with COLO 205 colon, 34.9 µM; in the assay with HL-60(TB) leukemia, 44.6 µM; in the assay with M14 melanoma, more than 100 µM. The GI50 is 41.2 µM in the assay on HCT-116 colon and 52.9 µM with SW-620 colon. The TGI in the assay on MDA-MB-231 breast was more than 100 µM; in the assay on OVCAR-5 ovarian it was more than 100 µM; with SF-268 CNS it was 22.8 µM; with COLO 205 colon, more than 100 µM; with HL-60(TB) leukemia, more than 100 µM; in the assay on M14 melanoma, more than 100 µM. Further, the TGI with HCT-116 colon and with SW-620 colon was more than 100 µM each time.

Turning to `COc1cc(-c2cc(-c3ccc(Nc4ccnc5cc(Cl)ccc45)cc3)nc(N3CCOCC3)n2)cc(OC)c1OC`, the GI50 in the assay on MDA-MB-231 breast is 1.81 µM; in the assay with HCC-2998 colon, 3.64 µM; in the assay on OVCAR-5 ovarian it was 2.19 µM; in the assay with SF-268 CNS it was 2.04 µM; with COLO 205 colon it was 2.79 µM; in the assay on HL-60(TB) leukemia, 5.99 µM. Moreover, the GI50 with NCI-H23 lung was 2.2 µM; in the assay with HCT-116 colon, 1.36 µM; in the assay on SW-620 colon, 1.28 µM. Also, the TGI in the assay on MDA-MB-231 breast is 4 µM; in the assay on HCC-2998 colon it was more than 100 µM; in the assay with OVCAR-5 ovarian, 4.72 µM; in the assay on SF-268 CNS, 5.7 µM; in the assay on COLO 205 colon, 9.36 µM; in the assay with HL-60(TB) leukemia it was 82.1 µM. Further, the results for the TGI in the assay on NCI-H23 lung, with HCT-116 colon and with SW-620 colon were 6.22 µM, 3.34 µM and 3.45 µM, respectively.

`Clc1ccc(-c2csc(Nc3cccc(-c4csc(-c5ccccc5)n4)c3)n2)cc1`: the GI50 in the assay with MDA-MB-231 breast was 6.77 µM; in the assay with SF-268 CNS it was 8.68 µM; with COLO 205 colon, 10 µM; in the assay on HL-60(TB) leukemia, 17.2 µM; in the assay with M14 melanoma it was 11.6 µM; in the assay with NCI-H23 lung, 11.4 µM. Further, the GI50 with HCT-116 colon is 8.97 µM; with SW-620 colon it was 12.2 µM. Also, the TGI worked out at 15.3 µM with MDA-MB-231 breast; 19.6 µM with SF-268 CNS; 23.1 µM in the assay on COLO 205 colon; 40.9 µM in the assay on HL-60(TB) leukemia; 24.1 µM with M14 melanoma; 26.2 µM in the assay on NCI-H23 lung. The TGI in the assay with HCT-116 colon was determined as 18.5 µM; in the assay on SW-620 colon, 28.8 µM.

For `COc1ccc2c(c1)CC[C@@H]1[C@@H]2CC[C@]2(C)[C@@H](NC(=O)/C=C/c3ccc(O)c(O)c3)CC[C@@H]12`, the GI50 in the assay on MDA-MB-231 breast was 2.6 µM; in the assay on HCC-2998 colon, 2.05 µM; in the assay with OVCAR-5 ovarian, 6.37 µM; with SF-268 CNS, 2.66 µM; with COLO 205 colon, 14 µM; in the assay on M14 melanoma, 2.26 µM. Besides, the GI50 with NCI-H23 lung was 3.51 µM; in the assay on HCT-116 colon it was 2.02 µM; in the assay on SW-620 colon, 5.55 µM. Moreover, the TGI was 15.2 µM with MDA-MB-231 breast; 4.19 µM in the assay on HCC-2998 colon; 20.7 µM with OVCAR-5 ovarian; 11 µM with SF-268 CNS; 46.8 µM with COLO 205 colon; 6.98 µM in the assay on M14 melanoma. The TGI in the assay on NCI-H23 lung was determined as 12.6 µM; with HCT-116 colon, 10.4 µM; in the assay with SW-620 colon, 25 µM.

With `COc1cccc(-c2ccc3c(c2)C2CCN(Cc4ccccc4)C3C2)c1` (stereo not given), the GI50 in the assay on MDA-MB-231 breast was 5.61 µM; with HCC-2998 colon, 13.6 µM; with OVCAR-5 ovarian, 11.8 µM; with SF-268 CNS it was 12.3 µM; in the assay on COLO 205 colon, 10 µM; in the assay on HL-60(TB) leukemia it was 5.71 µM. Also, the GI50 with M14 melanoma is 5.78 µM; in the assay on HCT-116 colon, 4.8 µM; in the assay on SW-620 colon, 4.59 µM. In addition, the TGI turned out to be 19 µM in the assay on MDA-MB-231 breast; 33.5 µM with HCC-2998 colon; 29 µM in the assay with OVCAR-5 ovarian; 34.4 µM in the assay with SF-268 CNS; 27.8 µM in the assay with COLO 205 colon; 21 µM in the assay with HL-60(TB) leukemia. Also, the TGI amounted to 24.8 µM with M14 melanoma, 23.6 µM in the assay with HCT-116 colon and 20.3 µM in the assay on SW-620 colon.

These data come from PubChem BioAssay (NCI).
